In patent US20240076667A1, “APPLICATION OF ANTISENSE OLIGONUCLEOTIDE TARGETING PBX1 PROMOTER REGION G-QUADRUPLEX IN PREPARATION OF MEDICINE FOR TREATING MELANOMA” (JILIN UNIVERSITY, priority 2022, published 2024):
Entries after “also recorded” stand apart in the source; their conditions may differ.

What was measured:
A375 cells [1] = assay: In vitro cell invasion experiment (Transwell), A375; assay type: cell-based, human; conditions: Transwell with Matrigel, 24 hours
Description: (§1) In vitro cell invasion experiment: in the Transwell invasion experiment, Matrigel is used as an invasive supraluminal membrane barrier (Corning, USA). The lower transwell chamber is filled with 2.5% serum containing DMEM medium. The cells are suspended at an upper chamber. After incubation for 24 hours, the filter is removed, and cells on the membrane are fixed by using methanol. Cells stained with 0.5% crystal violet infiltrate the surrounding matrix. The dye is washed with water and the cells are examined under the microscope (Leica, Germany). Six micrographs are taken for each person.

PBX1 = PBX1 mRNA and protein levels by qRT-PCR and western blot in A375 cells; assay type: cell-based, human; conditions: for mRNA level of PBX1: qRT-PCR; for protein level of PBX1: western blot, normalized to GAPDH
Description: RNA extraction and quantitative RT-PCR detection: total RNA is extracted from cultured cells by using TRIzol (Invitrogen, USA), then is converted into cDNA by SuperScript III First-Strand Synthesis SuperMix (Invitrogen, USA). qRT-PCR detection is performed by using SYBR Green®Mix (Invitrogen, USA) in ABI 7500 (Invitrogen, USA). A relative expression quantity of RNA is calculated by using a comparative CT method.
Immunoblotting: for protein analysis of a whole-cell lysate, cells are lysed with RIPA (CWBIO, Beijing, China) buffer solution. For tumors, liquid nitrogen is first used to pulverize tissues. Then, the lysate is generated on ice with the RIPA (CWBIO, Beijing, China) buffer solution for 20 minutes, and then centrifuged at 4° C., 13000 rpm for 15 minutes. Protein-containing supernatant is transferred to the fresh microcentrifuge tube, and stored at −20° C. (short-term storage) for subsequent use. The protein is quantified by using the BIO-RAD DC protein assay. The total proteins are electrophoresed on SDS-polyacrylamide gels. Then, the proteins are transferred to polyvinylidene difluoride (PVDF) membrane. After incubation with the primary antibody overnight on the shaker at 4° C., the membrane is washed 6 times (5 minutes each time) with TBS-T (Invitrogen, USA). Then, blots are incubated with horseradish peroxidase (IRP)-conjugated secondary antibodies for 60 minutes at RT on the plate shaker. The membrane is cleaned by TBS-T (6×5 minutes). Detection on immunoreactive bands is performed by using SuperSignalmWest Pico chemiluminescence substrate kit (Thermo Fisher Scientific, USA) and Western blotting detection system (BioRad, USA). GAPDH is used as the loading control for western blotting. The intensity levels of the bands are normalized to GAPDH.

B16-F10 cells [2] = assay: Colony forming assay, B16-F10; assay type: cell-based, mouse
Description: (§2) Colony forming assay: for the colony forming assay, A375 and B16-F10 cells are seeded on 6-well plates with the density of 500-1000 cells. After two weeks, staining is performed by using 1% crystal violet at room temperature, rinsing is performed with PBS and tap water, and the number of colonies is counted.

PBX1 transcript = assay: BG4 RNA immunoprecipitation (RIP) followed by qRT-PCR in A375 cells; assay type: cell-based, human
Description: FIGS. 2A-2G are features formed by dG1 and rG1 in vitro and in cells. In (FIG. 2A), Left: CD spectra of WT and Mut dG1, and Right: CD spectra of WT and Mut rG1. CD is circular dichroism. In (FIG. 2B), Left: gel mobility assay of WT and Mut dG1, and Right: gel mobility assay of WT and Mut rG1. In (FIG. 2C), under specified conditions, fluorescence-on assay of NMM in absence of presence of dG1 or rG1, and their G/A mutant. In (FIG. 2D), the occupancy of BG4 in the PBX1 promoter region is measured in A375 cells by BG4 chromatin immunoprecipitation (ChIP), followed by qRT-PCR. In (FIG. 2E), RNA immunoprecipitation (RIP) detection is performed to show the association between BG4 and the PBX1 transcript in A375 cells, followed by qRT-PCR. In (FIG. 2F), the occupancy of BG4 in the PBX1 promoter region is measured, by the BG4 chip, in A375 cells treated with or without PDS and TMPyP4, followed by qRT-PCR. […] SEM represents the standard error of mean. *P< 0.05, **P< 0.01***P< 0.001.
In this embodiment, several methods are further employed to verify the formation of dG1 and rG1. First, circular dichroism (CD) is used to examine the molar ellipticity of dG1 and rG1 sequences (33 nt) and mutants thereof, and the mutants are designed to eliminate G4 formation. […] N-methyl mesoporphyrin IX (NMN) is the well-known fluorescent G4-specific ligand that can be used for studies of G4 formation in vitro. Both dG1 and rG1 are found to enhance the fluorescence of N N (FIG. 2C). In addition, in this embodiment, chromatin immunoprecipitation (ChIP) and RNA immunoprecipitation (RIP) detection are performed in A375 cells using the well-known G4-specific antibody BG4. […] In summary, dG1 and rG1 can fold stable G4 structures in vitro and in cells. […] Therefore, the ability of these G4-specific ligands to interact with PBX1 G4s is investigated next.
Control:mG*mT*mC*mC*mA*mC*mA*mA*mA*mC*mA*mC*mA*mA*mC*mT*mC* mC*mT*mG*). […] This example also establishes short-term cultures of patient-derived melanoma xenograft (PDX)-derived tumor cells (PDCs) (FIG. 5D). […]

A375 cells [3] = assay: Colony forming assay, A375; assay type: cell-based, human
Description: as §2

B16-F10 cells [4] = assay: In vitro cell invasion experiment (Transwell), B16-F10; assay type: cell-based, mouse; conditions: Transwell with Matrigel, 24 hours
Description: as §1

In the case of `NCCOc1cc(C(=O)Nc2cc(OCCN)c3ccccc3n2)nc(C(=O)Nc2cc(OCCN)c3ccccc3n2)c1` [PDS, Pyridostatin], the invasion (A375 cells [1]) is reported as “inhibit”, the “mRNA level of PBX1” value (PBX1) is reported as “inhibit; also recorded: remarkably reduces” and the “protein level of PBX1” value (PBX1) is reported as “inhibit; also recorded: remarkably reduces”. The colony formation (B16-F10 cells [2]) was “inhibits”, the “PBX1 transcript pulled down by BG4” value (PBX1 transcript) was “enhance” and the colony formation (A375 cells [3]) was “inhibits”. For the same compound, the invasion (B16-F10 cells [4]) was “inhibit”.

In the case of `C[n+]1ccc(-c2c3nc(c(-c4cc[n+](C)cc4)c4ccc([nH]4)c(-c4cc[n+](C)cc4)c4ccc([nH]4)c(-c4cc[n+](C)cc4)c4nc2C=C4)C=C3)cc1` [TMPyP4], the invasion (A375 cells [1]) is reported as “inhibit”, the “mRNA level of PBX1” value (PBX1) is reported as “inhibit; also recorded: remarkably reduces” and the “protein level of PBX1” value (PBX1) is reported as “inhibit; also recorded: remarkably reduces”. The colony formation (B16-F10 cells [2]) was “inhibits”, the “PBX1 transcript pulled down by BG4” value (PBX1 transcript) was “enhance” and the colony formation (A375 cells [3]) was “inhibits”. The invasion (B16-F10 cells [4]) was “inhibit”.
